Results published in patent publication US10167300B2, “Metalloenzyme inhibitor compounds as fungicides” (priority 2014, dated 2019).
Like-named read-outs stand apart in the source and are kept apart here.

Assay: Type B (low volume, EC formulation, track sprayer 200 L/ha) assay, leaf blotch of wheat, SEPTTR field isolate (FI SEPTTR)
Assay type: in vivo, Mycosphaerella graminicola on wheat plants (variety Yuma)
Details: Zymoseptoria tritici, 72 h, field isolate, low volume EC, 100 g/ha, wheat (Yuma)
Protocol: Example A: Evaluation of Fungicidal Activity: Leaf Blotch of Wheat (Mycosphaerella graminicola; Anamorph: Septoria tritici; Bayer Code SEPTTR)
For Type A assays, technical grades of the experimental fungicides in Table 4 below were dissolved in acetone, and then mixed with nine volumes of water containing 110 ppm Triton X-100. The fungicide solutions were applied onto wheat seedlings using an automated booth sprayer. For Type B assays, emulsifiable concentrate (EC) formulations of technical grades of the experimental fungicides in Table 4 below were prepared at 10% (w/v), and then mixed with 150 volumes of 0.1% Trycol 5941. These solutions were applied onto wheat seedlings using an automated track sprayer at 200 L/ha. All sprayed plants were allowed to air dry prior to further handling.
Wheat plants (variety Yuma) were grown from seed in a greenhouse in 50% mineral soil/50% soil-less Metro mix until the first leaf was fully emerged, with 7-10 seedlings per pot. Prior to or after application of experimental fungicides, plants were inoculated either with spores of a standard laboratory SEPTTR isolate (SI SEPTTR) or with spores from a SEPTTR field isolate collected from Wellsbourne, England in 2012 (FI SEPTTR). After inoculation the plants were kept for 3 days at 20° C. in 100% relative humidity (one day in a dark dew chamber followed by two days in a lighted dew chamber). Plants were then transferred to a 20° C. greenhouse for disease development. When disease symptoms were fully expressed on untreated plants, infection levels on treated plants were assessed on a scale of 0 to 100 percent disease severity. Percent disease control was calculated using the ratio of disease severity on treated plants relative to untreated plants.

[1] = 3 Day Curative, read-out: Disease Control, FI SEPTTR Type B Assay (100 g/ha) 3 DC
[2] = 3 Day Protectant, read-out: Disease Control, FI SEPTTR Type B Assay (100 g/ha) 3 DP

| Compound | pest or weed control at 100 g/ha [1] | pest or weed control at 100 g/ha [2] |
| --- | --- | --- |
| COc1ncncc1C(O)(c1ccc(-c2ccc(OC(F)(F)F)cc2C)cn1)C(C)(C)C (stereo not drawn) [Compound 222] | 40 to 59% | 60 to 79% |
| Cc1cc(C(C)(C)C#N)ccc1-c1ccc(C(O)(c2cncnc2)C(C)(C)C)nc1 (stereo not drawn) [Compound 223] | 80 to 100% | 80 to 100% |
| Cc1cc(OC(F)(F)F)ccc1-c1ccc(C(O)(c2cnccn2)C(C)(C)C)nc1 (stereo not drawn) [Compound 224] | 40 to 59% | 60 to 79% |
| CC(C)(C)C(O)(c1ccc(-c2ccc(OCC(F)(F)F)cc2)cn1)c1cnccn1 (stereo not drawn) [Compound 225] | 80 to 100% | 60 to 79% |
| CC(C)(C#N)c1ccc(-c2ccc(C(O)(c3cncnc3)C(C)(C)C)nc2)c(F)c1 (stereo not drawn) [Compound 226] | 80 to 100% | 80 to 100% |
| CC(C)(C)C(O)(Cc1cccnc1)c1ccc(-c2ccc(C3(C#N)CC3)cc2)cn1 (stereo not drawn) [Compound 227] | < 40% | 40 to 59% |
| COC(c1cncnc1)(c1ccc(-c2ccc(C(C)(C)C#N)cc2F)cn1)C(C)(C)C (stereo not drawn) [Compound 228] | 80 to 100% | 80 to 100% |
| CC(C)(C)C(O)(c1ccc(-c2ccc(C3(C#N)CC3)cc2)cn1)c1cnccn1 (stereo not drawn) [Compound 229] | 60 to 79% | 60 to 79% |
| CC(C)C(O)(c1cncnc1)c1ccc(-c2ccc(OC(F)(F)F)cc2F)cn1 (stereo not drawn) [Compound 230] | < 40% | 80 to 100% |
| CCOC(c1cncnc1)(c1ccc(-c2ccc(OC(F)(F)F)cc2)cn1)C1CC1 (stereo not drawn) [Compound 232] | < 40% | 60 to 79% |
| COc1ncncc1C(O)(c1ccc(-c2ccc(C3(C#N)CC3)cc2F)cn1)C(C)(C)C (stereo not drawn) [Compound 233] | 80 to 100% | 80 to 100% |
| CC(C)(C)C(O)(Cc1cccnc1)c1ccc(-c2ccc(OCC(F)(F)F)nc2)cn1 (stereo not drawn) [Compound 234] | 40 to 59% | 60 to 79% |
| CC(C)(C)C(O)(c1ccc(-c2ccc(OC(F)(F)F)cc2)cn1)c1cccnc1Cl (stereo not drawn) [Compound 235] | 60 to 79% | 80 to 100% |
| CC(C)(C)C(O)(c1cncnc1)c1ccc(-c2ccc(C3(C#N)CC3)cc2F)cn1 (stereo not drawn) [Compound 236] | 80 to 100% | 80 to 100% |
| C#CCOC(C)(c1cncnc1)c1ccc(-c2ccc(OC(F)(F)F)cc2F)cn1 (stereo not drawn) [Compound 237] | < 40% | 40 to 59% |
| C#CCOC(CC)(c1cncnc1)c1ccc(-c2ccc(OC(F)(F)F)cc2F)cn1 (stereo not drawn) [Compound 238] | 60 to 79% | < 40% |
| Cc1cc(C(C)(C)C#N)cnc1-c1ccc(C(O)(c2cncnc2)C(C)(C)C)nc1 (stereo not drawn) [Compound 239] | 80 to 100% | 80 to 100% |
| COc1ncncc1C(O)(c1ccc(-c2ccc(C(C)(C)C#N)cc2)cn1)C(C)(C)C (stereo not drawn) [Compound 240] | 80 to 100% | 80 to 100% |
| COC(C)(c1cncnc1)c1ccc(-c2ccc(OC(F)(F)F)cc2)cn1 (stereo not drawn) [Compound 241] | < 40% | 40 to 59% |
| CC#CC(OCC)(c1cncnc1)c1ccc(-c2ccc(OC(F)(F)F)cc2)cn1 (stereo not drawn) [Compound 242] | < 40% | 40 to 59% |
| C#CCOC(O)(c1cncnc1)c1ccc(-c2ccc(OC(F)(F)F)cc2)cn1 (stereo not drawn) [Compound 243] | < 40% | 80 to 100% |
| CCOC(CC)(c1cncnc1)c1ccc(-c2ccc(OC(F)(F)F)cc2)cn1 (stereo not drawn) [Compound 244] | < 40% | 40 to 59% |
| COc1ncncc1C(O)(c1ccc(-c2ccc(C(C)(F)F)cc2)cn1)C(C)(C)C (stereo not drawn) [Compound 246] | 60 to 79% | 80 to 100% |
| COc1ncncc1C(O)(c1ccc(-c2ccc(Cl)cc2)cn1)C(C)(C)C (stereo not drawn) [Compound 247] | < 40% | 80 to 100% |
